Reference: ChEMBL document CHEMBL5584275, “Design, Synthesis, and Evaluation of a New Chemotype Fluorescent Ligand for the P2Y2 Receptor” (ACS Med Chem Lett, 2024)

Tests used:
[1] = target: T1, P2Y purinoceptor 2 (Homo sapiens, UniProt P41231); test: Displacement of 2-((5-(7-chloro-2-((3-((2-(5-(3-(5,5-difluoro-7,9-dimethyl-5H-4lambda4,5lambda4-dipyrrolo[1,2-c:2',1'-f][1,3,2]diazaborinin-3-yl)propanamido)pentanamido)ethyl)amino)-3-oxopropyl)amino)-4H-benzo[5,6]cyclohepta[1,2-d]thiazol-4-yl)-2-oxo-4-thioxo-3,4-dihydropyrimidin-1(2H)-yl)methyl)-N-(1H-tetrazol-5-yl)thiazole-4-carboxamide from NLuc fused P2Y2R (unknown origin) extracted from 1321N1 cell membrane incubated for 1 hr by NanoBRET assay
[2] = target: T1, P2Y purinoceptor 2
Description: Binding affinity to NanoLuc-fused P2Y2R (unknown origin) extracted from 1321N1 cell membrane incubated for 1 hr by NanoBRET assay

[3] = target: T1, P2Y purinoceptor 2; remark: listed apart in the source
Description: Displacement of (E)-N6-(5-(bis(4-chlorophenyl)methyl)thiazol-2-yl)-N2-(6-(2-(4-(2-(5,5-difluoro-7-(thiophen-2-yl)-5H-4lambda4,5lambda4-dipyrrolo[1,2-c:2',1'-f][1,3,2]diazaborinin-3-yl)vinyl)phenoxy)acetamido)hexanoyl)-L-lysine from NLuc fused P2Y2R (unknown origin) extracted from 1321N1 cell membrane incubated for 1 hr by NanoBRET assay

T1 sequence (P41231 whole entry, the tested form may be a part): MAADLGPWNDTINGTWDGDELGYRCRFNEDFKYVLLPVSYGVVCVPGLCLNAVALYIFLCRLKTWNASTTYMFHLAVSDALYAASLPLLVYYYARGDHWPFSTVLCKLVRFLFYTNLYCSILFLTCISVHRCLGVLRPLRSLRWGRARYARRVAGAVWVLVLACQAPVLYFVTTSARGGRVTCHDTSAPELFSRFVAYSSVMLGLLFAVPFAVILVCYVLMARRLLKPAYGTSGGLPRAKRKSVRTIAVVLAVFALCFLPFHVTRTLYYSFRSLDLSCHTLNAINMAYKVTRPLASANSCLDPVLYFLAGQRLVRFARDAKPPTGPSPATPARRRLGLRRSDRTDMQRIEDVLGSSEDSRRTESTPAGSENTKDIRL

Row | Compound | Ki [1] [µM] | Kd [2] [µM] | Ki [3] [µM]
1 | O=C(COc1ccc(/C=C/C2=[N+]3C(=Cc4ccc(-c5cccs5)n4[B-]3(F)F)C=C2)cc1)NCCCCCC(=O)N[C@@H](CCCNc1ncc(C(c2ccc(Cl)cc2)c2ccc(Cl)cc2)s1)C(=O)O | 3.31 | 0.955 | –
2 | CCOCCNc1nc2c(s1)C=Cc1cc(Cl)ccc1[C@@H]2c1cn(C)c(=O)[nH]c1=S (racemic) | – | – | 9.12
3 | CCOCCNc1ncc(C(c2ccc(Cl)cc2)c2ccc(Cl)cc2)s1 | ~1000 | – | –
4 | O=C(COc1ccc(/C=C/C2=[N+]3C(=Cc4ccc(-c5cccs5)n4[B-]3(F)F)C=C2)cc1)NCCCCCC(=O)N[C@@H](CCNc1ncc(C(c2ccc(Cl)cc2)c2ccc(Cl)cc2)s1)C(=O)O | – | 2.29 | –
5 | CN(C)c1ccc2c(-c3ccc(C(=O)N[C@@H](CCCNc4ncc(C(c5ccc(Cl)cc5)c5ccc(Cl)cc5)s4)C(=O)O)cc3C(=O)[O-])c3ccc(=[N+](C)C)cc-3oc2c1 | – | 4.17 | –
